Measured values published in patent publication US10246426B2, “Triazole compounds as T-type calcium channel blockers” (IDORSIA PHARMACEUTICALS LTD, priority 2014, dated 2019).

These compounds were tested against Cav3.2 (Homo sapiens, UniProt O95180) (assay: Calcium flux FLIPR assay, HEK293 cells recombinantly expressing Cav3.2). Conditions: Cav3.2-channel, Ca2+ entry stimulated by 10 mM CaCl2.
Assay type: cell-based
Procedure, shortened: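 Fluo-4-loaded HEK293 cells stably expressing Cav3.2, seeded overnight at 37 °C; compounds diluted in TEAC buffer (pH 7.2) and preincubated 3 min before Ca2+ entry triggered with CaCl2 at 10 mM final. Area under FLIPR fluorescence trace fitted sigmoidally; IC50 relative to vehicle signal.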

Sequence of Cav3.2 (O95180 whole entry, looked up): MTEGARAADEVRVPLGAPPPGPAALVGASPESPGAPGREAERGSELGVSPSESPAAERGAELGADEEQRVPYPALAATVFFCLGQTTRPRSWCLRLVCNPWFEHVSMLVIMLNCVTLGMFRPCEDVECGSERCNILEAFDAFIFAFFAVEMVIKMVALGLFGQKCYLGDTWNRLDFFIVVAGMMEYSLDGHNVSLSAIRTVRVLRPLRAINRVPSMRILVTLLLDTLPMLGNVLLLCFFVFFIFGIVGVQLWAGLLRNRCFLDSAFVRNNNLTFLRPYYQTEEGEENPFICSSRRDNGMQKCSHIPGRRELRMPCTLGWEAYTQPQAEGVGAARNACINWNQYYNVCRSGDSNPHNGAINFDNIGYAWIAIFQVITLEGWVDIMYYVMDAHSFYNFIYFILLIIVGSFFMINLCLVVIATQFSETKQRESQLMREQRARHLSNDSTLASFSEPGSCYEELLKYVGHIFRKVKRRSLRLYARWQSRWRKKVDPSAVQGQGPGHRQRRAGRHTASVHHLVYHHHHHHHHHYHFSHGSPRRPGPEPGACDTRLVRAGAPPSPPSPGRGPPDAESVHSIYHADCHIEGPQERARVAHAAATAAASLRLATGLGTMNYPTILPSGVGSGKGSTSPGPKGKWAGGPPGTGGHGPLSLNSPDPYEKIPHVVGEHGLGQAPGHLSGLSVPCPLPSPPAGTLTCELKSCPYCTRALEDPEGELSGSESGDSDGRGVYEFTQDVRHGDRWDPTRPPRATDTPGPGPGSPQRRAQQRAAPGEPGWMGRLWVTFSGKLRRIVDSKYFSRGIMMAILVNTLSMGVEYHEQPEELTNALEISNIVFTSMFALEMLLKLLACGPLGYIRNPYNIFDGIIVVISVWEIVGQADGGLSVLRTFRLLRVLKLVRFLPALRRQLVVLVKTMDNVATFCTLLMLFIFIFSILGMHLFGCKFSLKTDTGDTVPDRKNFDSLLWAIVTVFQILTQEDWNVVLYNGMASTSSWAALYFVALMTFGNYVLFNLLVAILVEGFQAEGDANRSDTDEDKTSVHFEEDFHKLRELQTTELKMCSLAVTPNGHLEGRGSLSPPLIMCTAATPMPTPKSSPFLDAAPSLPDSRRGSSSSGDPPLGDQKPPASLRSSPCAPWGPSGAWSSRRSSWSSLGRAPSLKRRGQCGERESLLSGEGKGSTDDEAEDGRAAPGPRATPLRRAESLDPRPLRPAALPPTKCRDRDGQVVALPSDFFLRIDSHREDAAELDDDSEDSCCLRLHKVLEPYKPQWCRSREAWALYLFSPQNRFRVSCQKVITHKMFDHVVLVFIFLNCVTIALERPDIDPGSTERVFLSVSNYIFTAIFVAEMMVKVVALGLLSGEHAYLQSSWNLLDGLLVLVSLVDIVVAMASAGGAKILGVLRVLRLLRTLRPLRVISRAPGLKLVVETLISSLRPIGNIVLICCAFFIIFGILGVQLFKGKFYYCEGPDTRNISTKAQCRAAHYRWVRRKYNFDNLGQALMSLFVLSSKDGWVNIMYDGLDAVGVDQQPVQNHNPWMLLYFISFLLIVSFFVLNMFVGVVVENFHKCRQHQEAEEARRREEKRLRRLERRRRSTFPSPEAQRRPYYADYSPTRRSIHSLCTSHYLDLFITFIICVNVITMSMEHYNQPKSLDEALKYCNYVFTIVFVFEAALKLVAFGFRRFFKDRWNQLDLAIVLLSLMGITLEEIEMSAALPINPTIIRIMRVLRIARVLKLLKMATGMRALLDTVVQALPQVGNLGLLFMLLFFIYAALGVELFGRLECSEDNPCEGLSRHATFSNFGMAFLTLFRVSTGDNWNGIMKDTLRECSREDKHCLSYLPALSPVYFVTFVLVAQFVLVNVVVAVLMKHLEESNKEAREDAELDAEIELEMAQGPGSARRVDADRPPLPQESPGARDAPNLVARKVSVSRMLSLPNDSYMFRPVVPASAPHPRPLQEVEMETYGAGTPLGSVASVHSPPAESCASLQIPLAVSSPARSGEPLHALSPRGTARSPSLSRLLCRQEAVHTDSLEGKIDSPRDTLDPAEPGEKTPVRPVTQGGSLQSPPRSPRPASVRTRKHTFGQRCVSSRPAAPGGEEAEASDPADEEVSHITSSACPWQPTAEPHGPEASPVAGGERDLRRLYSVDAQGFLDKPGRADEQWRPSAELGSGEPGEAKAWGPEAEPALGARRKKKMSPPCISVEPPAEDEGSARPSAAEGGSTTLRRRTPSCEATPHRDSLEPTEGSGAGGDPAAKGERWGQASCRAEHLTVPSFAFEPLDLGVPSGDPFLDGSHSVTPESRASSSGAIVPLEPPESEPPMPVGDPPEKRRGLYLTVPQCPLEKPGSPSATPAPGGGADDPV

SMILES | IC50 [µM]
CCn1ncc2cc(CC(=O)Nc3cnn(Cc4cc(F)c(F)c(OC)c4)n3)ccc21 [Example 220, N-[2-(3,4-Difluoro-5-methoxy-benzyl)-2H-[1,2,3]triazol-4-yl]-2-(1-ethyl-1H-indazol-5-yl)-acetamide] | 0.19
COc1cc(Cn2ncc(NC(=O)Cc3ccc(C(C)(C)C)cc3)n2)cc(F)c1C#N [Example 158, 2-(4-tert-Butyl-phenyl)-N-[2-(4-cyano-3-fluoro-5-methoxy-benzyl)-2H-[1,2,3]triazol-4-yl]-acetamide] | 0.24
COc1cc(Cn2ncc(NC(=O)Cc3ccc4c(cnn4C)c3)n2)ccc1F [Example 151, N-[2-(4-Fluoro-3-methoxy-benzyl)-2H-[1,2,3]triazol-4-yl]-2-(1-methyl-1H-indazol-5-yl)-acetamide] | 0.073
COCCOc1ccc(Cn2ncc(NC(=O)Cc3ccc4c(ccn4C)c3)n2)cc1 [Example 87, N-{2-[4-(2-Methoxy-ethoxy)-benzyl]-2H-[1,2,3]triazol-4-yl}-2-(1-methyl-1H-indol-5-yl)-acetamide] | 0.46
COc1ccc(Cn2ncc(NC(=O)Cc3ccc(C(C)(C)C)cc3)n2)cc1OC [Example 49, 2-(4-tert-Butyl-phenyl)-N-[2-(3,4-dimethoxy-benzyl)-2H-[1,2,3]triazol-4-yl]-acetamide] | 0.17
CC(C)(C)c1ccc(CC(=O)Nc2cnn(Cc3ccc(OC(F)F)cc3)n2)cc1 [Example 88, 2-(4-tert-Butyl-phenyl)-N-[2-(4-difluoromethoxy-benzyl)-2H-[1,2,3]triazol-4-yl]-acetamide] | 0.056
CCN(CC)c1ccc(CC(=O)Nc2cnn(Cc3ccc(OC)cc3)n2)cn1 [Example 58, 2-(6-Diethylamino-pyridin-3-yl)-N-[2-(4-methoxy-benzyl)-2H-[1,2,3]triazol-4-yl]-acetamide] | 0.16
Cc1cn(C)c2ccc(CC(=O)Nc3cnn(Cc4ccc(C#N)cn4)n3)cc12 [Example 243, N-[2-(5-Cyano-pyridin-2-ylmethyl)-2H-[1,2,3]triazol-4-yl]-2-(1,3-dimethyl-1H-indol-5-yl)-acetamide] | 0.11
CCOc1ccc(Cn2ncc(NC(=O)Cc3ccc(C(C)C)cc3)n2)cc1 [Example 44, N-[2-(4-Ethoxy-benzyl)-2H-[1,2,3]triazol-4-yl]-2-(4-isopropyl-phenyl)-acetamide] | 0.04
Cn1ncc2cc(CC(=O)Nc3cnn(Cc4ccc(OC(F)(F)F)cc4)n3)ccc21 [Example 92, 2-(1-Methyl-1H-indazol-5-yl)-N-[2-(4-trifluoromethoxy-benzyl)-2H-[1,2,3]triazol-4-yl]-acetamide] | 0.0099
COc1ccc(Cn2ncc(NC(=O)Cc3ccc(N4CCC(F)(F)C4)nc3)n2)cc1OC [Example 48, 2-[6-(3,3-Difluoro-pyrrolidin-1-yl)-pyridin-3-yl]-N-[2-(3,4-dimethoxy-benzyl)-2H-[1,2,3]triazol-4-yl]-acetamide] | 0.53
CC1(COc2ccc(CC(=O)Nc3cnn(Cc4ccc(C#N)cc4)n3)cc2)CC(F)(F)C1 [Example 197, N-[2-(4-Cyano-benzyl)-2H-[1,2,3]triazol-4-yl]-2-[4-(3,3-difluoro-1-methyl-cyclobutylmethoxy)-phenyl]-acetamide] | 0.052
COc1ccc(Cn2ncc(NC(=O)Cc3ccc(C(C)C)cc3)n2)cc1 [Example 25, 2-(4-Isopropyl-phenyl)-N-[2-(4-methoxy-benzyl)-2H-[1,2,3]triazol-4-yl]-acetamide] | 0.033
COc1ccc(Cn2ncc(NC(=O)Cc3ccc4c(cnn4C)c3)n2)cc1C#N [Example 208, N-[2-(3-Cyano-4-methoxy-benzyl)-2H-[1,2,3]triazol-4-yl]-2-(1-methyl-1H-indazol-5-yl)-acetamide] | 0.6
CCn1ncc2cc(CC(=O)Nc3cnn(Cc4ccc(OC)c(F)c4)n3)ccc21 [Example 128, 2-(1-Ethyl-1H-indazol-5-yl)-N-[2-(3-fluoro-4-methoxy-benzyl)-2H-[1,2,3]triazol-4-yl]-acetamide] | 0.15
Cc1nn(C)c2ccc(CC(=O)Nc3cnn(Cc4ccc(F)c(F)c4)n3)cc12 [Example 28, N-[2-(3,4-Difluoro-benzyl)-2H-[1,2,3]triazol-4-yl]-2-(1,3-dimethyl-1H-indazol-5-yl)-acetamide] | 0.022
Cc1ccc(Cn2ncc(NC(=O)Cc3ccc(C(C)C)cc3)n2)cc1 [Example 24, 2-(4-Isopropyl-phenyl)-N-[2-(4-methyl-benzyl)-2H-[1,2,3]triazol-4-yl]-acetamide] | 0.037
Cn1nc(C2CC2)c2cc(CC(=O)Nc3cnn(Cc4ccc(F)c(F)c4)n3)ccc21 [Example 35, 2-(3-Cyclopropyl-1-methyl-1H-indazol-5-yl)-N-[2-(3,4-difluoro-benzyl)-2H-[1,2,3]triazol-4-yl]-acetamide] | 0.029
Cc1ccc(Cn2ncc(NC(=O)Cc3ccc(OC4CC(F)(F)C4)cc3)n2)cc1C#N [Example 209, N-[2-(3-Cyano-4-methyl-benzyl)-2H-[1,2,3]triazol-4-yl]-2-[4-(3,3-difluoro-cyclobutoxy)-phenyl]-acetamide] | 0.18
CCOc1ccc(Cn2ncc(NC(=O)Cc3ccc4c(ccn4C)c3)n2)cc1 [Example 40, N-[2-(4-Ethoxy-benzyl)-2H-[1,2,3]triazol-4-yl]-2-(1-methyl-1H-indol-5-yl)-acetamide] | 0.035
CCCCc1n[nH]c2ccc(CC(=O)Nc3cnn(Cc4ccc(F)c(F)c4)n3)cc12 [Example 32, 2-(3-Butyl-1H-indazol-5-yl)-N-[2-(3,4-difluoro-benzyl)-2H-[1,2,3]triazol-4-yl]-acetamide] | 0.074
COc1ccc(Cn2ncc(NC(=O)Cc3ccc(OC4CC(F)(F)C4)cc3)n2)cc1F [Example 125, 2-[4-(3,3-Difluoro-cyclobutoxy)-phenyl]-N-[2-(3-fluoro-4-methoxy-benzyl)-2H-[1,2,3]triazol-4-yl]-acetamide] | 0.18
CCOc1ccc(Cn2ncc(NC(=O)Cc3ccc(C(C)(C)C)cc3)n2)cc1 [Example 43, 2-(4-tert-Butyl-phenyl)-N-[2-(4-ethoxy-benzyl)-2H-[1,2,3]triazol-4-yl]-acetamide] | 0.045

Second part, the compound after the results:

IC50 [µM] | SMILES
0.41 | Cc1ccc(Cn2ncc(NC(=O)Cc3ccc(OCC4(F)COC4)cc3)n2)cc1C#N [Example 200, N-[2-(3-Cyano-4-methyl-benzyl)-2H-[1,2,3]triazol-4-yl]-2-[4-(3-fluoro-oxetan-3-ylmethoxy)-phenyl]-acetamide]
0.07 | COc1cc(Cn2ncc(NC(=O)Cc3ccc(C(C)C)cc3)n2)ccc1F [Example 153, N-[2-(4-Fluoro-3-methoxy-benzyl)-2H-[1,2,3]triazol-4-yl]-2-(4-isopropyl-phenyl)-acetamide]
0.022 | Cc1cn(C)c2ccc(CC(=O)Nc3cnn(Cc4ccc(C#N)cc4)n3)cc12 [Example 100, N-[2-(4-Cyano-benzyl)-2H-[1,2,3]triazol4-yl]-2-(1,3-dimethyl-1H-indol-5-yl)-acetamide]
0.044 | CC(C)(C)c1ccc(CC(=O)Nc2cnn(Cc3ccc(C#N)cc3)n2)cc1 [Example 96, 2-(4-tert-Butyl-phenyl)-N-[2-(4-cyano-benzyl)-2H-[1,2,3]triazol-4-yl]-acetamide]
0.012 | Cn1ccc2cc(CC(=O)Nc3cnn(Cc4ccc(F)cc4)n3)ccc21 [Example 52, N-[2-(4-Fluoro-benzyl)-2H-[1,2,3]triazol-4-yl]-2-(1-methyl-1H-indol-5-yl)-acetamide]
0.036 | N#Cc1ccc(Cn2ncc(NC(=O)Cc3ccc(C4(C#N)CC4)cc3)n2)cc1F [Example 231, 2-[4-(1-Cyano-cyclopropyl)-phenyl]-N-[2-(4-cyano-3-fluoro-benzyl)-2H-[1,2,3]triazol-4-yl]-acetamide]
0.066 | Cc1ccc(Cn2ncc(NC(=O)Cc3ccc(C4(C)COC4)cc3)n2)cc1 [Example 67, N-[2-(4-Methyl-benzyl)-2H-[1,2,3]triazol-4-yl]-2-[4-(3-methyl-oxetan-3-yl)-phenyl]-acetamide]
0.25 | COc1ccc(Cn2ncc(NC(=O)Cc3ccc(C4(F)COC4)cc3)n2)cc1C#N [Example 214, N-[2-(3-Cyano-4-methoxy-benzyl)-2H-[1,2,3]triazol-4-yl]-2-[4-(3-fluoro-oxetan-3-yl)-phenyl]-acetamide]
0.036 | Cc1cc(Cn2ncc(NC(=O)Cc3ccc(C(C)(C)C)cc3)n2)ccc1C#N [Example 162, 2-(4-tert-Butyl-phenyl)-N-[2-(4-cyano-3-methyl-benzyl)-2H-[1,2,3]triazol-4-yl]-acetamide]
0.11 | COc1ccc(Cn2ncc(NC(=O)Cc3ccc(C4(F)COC4)cc3)n2)cc1F [Example 127, N-[2-(3-Fluoro-4-methoxy-benzyl)-2H-[1,2,3]triazol-4-yl]-2-[4-(3-fluoro-oxetan-3-yl)-phenyl]-acetamide]
0.082 | Cc1ccc(Cn2ncc(NC(=O)Cc3ccc(N4CCC(F)(F)C4)nc3)n2)cc1C#N [Example 211, N-[2-(3-Cyano-4-methyl-benzyl)-2H-[1,2,3]triazol-4-yl]-2-[6-(3,3-difluoro-pyrrolidin-1-yl)-pyridin-3-yl]-acetamide]
0.076 | Cn1ncc2cc(CC(=O)Nc3cnn(Cc4ccc(C#N)cc4)n3)ccc21 [Example 234, N-[2-(4-Cyano-benzyl)-2H-[1,2,3]triazol-4-yl]-2-(1-methyl-1H-indazol-5-yl)-acetamide]
0.086 | O=C(Cc1ccc(C2(C(F)(F)F)CC2)cc1)Nc1cnn(Cc2ccc(OC(F)F)c(F)c2)n1 [Example 181, N-[2-(4-Difluoromethoxy-3-fluoro-benzyl)-2H-[1,2,3]triazol-4-yl]-2-[4-(1-trifluoromethyl-cyclopropyl)-phenyl]-acetamide]
0.036 | N#Cc1ccc(Cn2ncc(NC(=O)Cc3ccc(N4CCC(F)(F)C4)nc3)n2)cc1 [Example 97, N-[2-(4-Cyano-benzyl)-2H-[1,2,3]triazol-4-yl]-2-[6-(3,3-difluoro-pyrrolidin-1-yl)-pyridin-3-yl]-acetamide]
